Among the data in the NIST ThermoML archive (doi:10.1021/je800503d) are mass density values, retold here.

For the data set the following is noted: 298.15 K; 101.33 kPa; Liquid; Vibrating tube method.

Molecules are shown by their SMILES. Numbers after ± are expanded uncertainties.

As for `CCO` [ethanol], the mass density turned out to be 785.04 ± 0.13 kg/m3. For the molecule `COCCOCCOCCOCCOC` [2,5,8,11,14-pentaoxapentadecane], the mass density came out at 1006.2 ± 0.24 kg/m3. On to `COCCOCCOCCOC` [2,5,8,11-tetraoxadodecane], for which the mass density was 980.42 ± 0.23 kg/m3. `CCCCCCCCCCCCCCCC` [hexadecane]: the mass density is reported as 770.01 ± 0.24 kg/m3.
